Source: patent US12703729B2, “GIP agonist compounds and methods” (Zealand Pharma A/S, priority 2014, dated 2026)
Starred links: 1 amine or outer side, 2 acyl side, 3 side chain; linkers in the order of their positions; H or OH if unused. Non-standard residues stand in square brackets, D forms with d. Residues, ends and D or L forms follow the SMILES beside them. Groups on a side chain read outwards from the residue. *: point of attachment. X1 = O=C(O)CCCCCCCCCCCCCCCCCCC(=O)N1CCN(CC(=O)*)CC1; C20 diacid = O=C(O)CCCCCCCCCCCCCCCCCCC(=O)*; γGlu = O=C(O)[C@H](CCC(=O)[*:2])N[*:1]; AEEA = NCCOCCOCC(=O)O; Aib = CC(C)(N)C(=O)O

What was measured:
[1] = biological target: T1, human GIP receptor (GIP R) (Homo sapiens, UniProt P48546); assay: Activity assay at human GIP receptor, cAMP induction (AlphaScreen), Example 3
T1 sequence (P48546 22-466): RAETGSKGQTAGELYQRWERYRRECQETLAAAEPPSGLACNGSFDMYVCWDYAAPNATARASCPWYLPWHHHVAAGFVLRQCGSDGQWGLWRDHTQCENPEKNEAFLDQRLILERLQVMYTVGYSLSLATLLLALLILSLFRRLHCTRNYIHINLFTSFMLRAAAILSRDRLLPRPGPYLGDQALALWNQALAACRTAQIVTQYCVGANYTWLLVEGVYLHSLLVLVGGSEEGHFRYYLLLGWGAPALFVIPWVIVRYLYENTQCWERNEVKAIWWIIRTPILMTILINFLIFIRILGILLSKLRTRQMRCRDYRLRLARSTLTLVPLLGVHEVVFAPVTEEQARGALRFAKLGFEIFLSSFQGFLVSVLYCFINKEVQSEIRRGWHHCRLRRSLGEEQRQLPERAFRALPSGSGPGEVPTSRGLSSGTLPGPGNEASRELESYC

[2] = biological target: human GLP-1 receptor (GLP-1R) (Homo sapiens, UniProt P43220); assay: Activity assay at human GLP-1 receptor, cAMP induction (AlphaScreen), Example 3
Chain of human GLP-1 receptor (GLP-1R) (P43220 24-463): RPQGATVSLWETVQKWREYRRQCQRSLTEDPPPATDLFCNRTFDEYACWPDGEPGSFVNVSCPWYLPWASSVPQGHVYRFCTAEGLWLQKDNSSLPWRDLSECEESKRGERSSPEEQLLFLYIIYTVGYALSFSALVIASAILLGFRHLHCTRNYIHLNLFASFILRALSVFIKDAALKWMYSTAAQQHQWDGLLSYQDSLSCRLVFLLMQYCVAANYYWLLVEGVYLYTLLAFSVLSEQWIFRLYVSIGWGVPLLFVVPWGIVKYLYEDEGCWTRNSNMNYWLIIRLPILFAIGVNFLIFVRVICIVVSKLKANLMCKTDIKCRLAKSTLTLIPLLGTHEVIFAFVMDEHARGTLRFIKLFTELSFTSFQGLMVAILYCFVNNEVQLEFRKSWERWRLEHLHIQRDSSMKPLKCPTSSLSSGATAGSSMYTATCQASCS

human GIP R = biological target: T2, human GIP R (Homo sapiens, UniProt P48546); assay: cell-based
T2 sequence (P48546 22-466): T1 sequence (P48546 22-466)

Structure (SMILES) | EC50 [1] | EC50 [2] | EC50 (human GIP R)
CC[C@H](C)[C@H](NC(=O)[C@H](Cc1ccccc1)NC(=O)[C@H](CC(=O)O)NC(=O)[C@H](CCC(N)=O)NC(=O)[C@H](C)NC(=O)[C@H](C)NC(=O)[C@H](CCCCNC(=O)COCCOCCNC(=O)COCCOCCNC(=O)CC[C@H](NC(=O)CCCCCCCCCCCCCCCCCCC(=O)O)C(=O)O)NC(=O)[C@H](CCCCN)NC(=O)[C@H](CC(=O)O)NC(=O)[C@H](CC(C)C)NC(=O)[C@H](CCC(=O)O)NC(=O)[C@@H](NC(=O)[C@H](CO)NC(=O)[C@H](Cc1ccc(O)cc1)NC(=O)[C@H](CC(=O)O)NC(=O)[C@H](CO)NC(=O)[C@@H](NC(=O)[C@H](Cc1ccccc1)NC(=O)[C@@H](NC(=O)CNC(=O)[C@H](CCC(=O)O)NC(=O)C(C)(C)NC(=O)[C@@H](N)Cc1ccc(O)cc1)[C@@H](C)O)[C@@H](C)CC)[C@@H](C)CC)C(=O)N[C@@H](CC(N)=O)C(=O)N[C@@H](Cc1c[nH]c2ccccc12)C(=O)N[C@@H](CC(C)C)C(=O)N[C@@H](CC(C)C)C(=O)N[C@@H](C)C(=O)NCC(=O)N1CCC[C@H]1C(=O)N[C@@H](CO)C(=O)N[C@@H](CO)C(=O)NCC(=O)N[C@@H](C)C(=O)N1CCC[C@H]1C(=O)N1CCC[C@H]1C(=O)N1CCC[C@H]1C(=O)N[C@@H](CO)C(N)=O [Compound 31] (H-Y[Aib]EGTFISDYSIELDKK([AEEA-AEEA-γGlu-C20 diacid])AAQDFINWLLAGPSSGAPPPS-NH2) | 9 pM | > 100000 pM | 12 pM
CC[C@H](C)[C@H](NC(=O)[C@H](Cc1ccccc1)NC(=O)[C@H](CC(=O)O)NC(=O)[C@H](CCC(N)=O)NC(=O)[C@H](C)NC(=O)[C@H](C)NC(=O)[C@H](CCCCNC(=O)COCCOCCNC(=O)COCCOCCNC(=O)CC[C@H](NC(=O)CCCCCCCCCCCCCCCCCCC(=O)O)C(=O)O)NC(=O)[C@H](CCCCN)NC(=O)[C@H](CC(=O)O)NC(=O)[C@H](CC(C)C)NC(=O)[C@H](CCC(=O)O)NC(=O)[C@@H](NC(=O)[C@H](CO)NC(=O)[C@H](Cc1ccc(O)cc1)NC(=O)[C@H](CC(=O)O)NC(=O)[C@H](CO)NC(=O)[C@@H](NC(=O)[C@H](Cc1ccccc1)NC(=O)[C@@H](NC(=O)CNC(=O)[C@H](CCC(=O)O)NC(=O)C(C)(C)NC(=O)[C@@H](N)Cc1ccc(O)cc1)[C@@H](C)O)[C@@H](C)CC)[C@@H](C)CC)C(=O)N[C@@H](CCC(=O)O)C(=O)N[C@@H](Cc1c[nH]c2ccccc12)C(=O)N[C@@H](CC(C)C)C(=O)N[C@@H](CC(C)C)C(=O)N[C@@H](C)C(=O)NCC(=O)N1CCC[C@H]1C(=O)N[C@@H](CO)C(=O)N[C@@H](CO)C(=O)NCC(=O)N[C@@H](C)C(=O)N1CCC[C@H]1C(=O)N1CCC[C@H]1C(=O)N1CCC[C@H]1C(=O)N[C@@H](CO)C(N)=O [Compound 32] (H-Y[Aib]EGTFISDYSIELDKK([AEEA-AEEA-γGlu-C20 diacid])AAQDFIEWLLAGPSSGAPPPS-NH2) | 12 pM | > 100000 pM | 20 pM
CC[C@H](C)[C@H](NC(=O)[C@H](CCCCNC(=O)COCCOCCNC(=O)COCCOCCNC(=O)CC[C@H](NC(=O)CCCCCCCCCCCCCCCCCCC(=O)O)C(=O)O)NC(=O)[C@H](CC(=O)O)NC(=O)[C@H](CC(C)C)NC(=O)[C@H](CCC(=O)O)NC(=O)[C@@H](NC(=O)[C@H](CO)NC(=O)[C@H](Cc1ccc(O)cc1)NC(=O)[C@H](CC(=O)O)NC(=O)[C@H](CO)NC(=O)[C@@H](NC(=O)[C@H](Cc1ccccc1)NC(=O)[C@@H](NC(=O)CNC(=O)[C@H](CCC(=O)O)NC(=O)C(C)(C)NC(=O)[C@@H](N)Cc1ccc(O)cc1)[C@@H](C)O)[C@@H](C)CC)[C@@H](C)CC)C(=O)N[C@@H](C)C(=O)N[C@@H](CCC(N)=O)C(=O)N[C@@H](CCCNC(=N)N)C(=O)N[C@@H](C)C(=O)N[C@@H](Cc1ccccc1)C(=O)N[C@H](C(=O)N[C@@H](CCC(=O)O)C(=O)N[C@@H](Cc1c[nH]c2ccccc12)C(=O)N[C@@H](CC(C)C)C(=O)N[C@@H](CC(C)C)C(=O)N[C@@H](C)C(=O)N[C@@H](CCC(N)=O)C(=O)NCC(=O)N1CCC[C@H]1C(=O)N[C@@H](CO)C(=O)N[C@@H](CO)C(=O)NCC(=O)N[C@@H](C)C(=O)N1CCC[C@H]1C(=O)N1CCC[C@H]1C(=O)N1CCC[C@H]1C(=O)N[C@@H](CO)C(N)=O)[C@@H](C)CC [Compound 34] (H-Y[Aib]EGTFISDYSIELDK([AEEA-AEEA-γGlu-C20 diacid])IAQRAFIEWLLAQGPSSGAPPPS-NH2) | 17 pM | > 10000 pM | 11 pM
CC[C@H](C)[C@H](NC(=O)[C@H](Cc1ccccc1)NC(=O)[C@H](C)NC(=O)[C@H](CCCNC(=N)N)NC(=O)[C@H](CCC(N)=O)NC(=O)[C@H](C)NC(=O)[C@H](CCCCNC(=O)COCCOCCNC(=O)COCCOCCNC(=O)CC[C@H](NC(=O)CCCCCCCCCCCCCCCCCCC(=O)O)C(=O)O)NC(=O)[C@H](CCCCN)NC(=O)[C@H](CC(=O)O)NC(=O)[C@H](CC(C)C)NC(=O)[C@H](CCC(=O)O)NC(=O)[C@@H](NC(=O)[C@H](CO)NC(=O)[C@H](Cc1ccc(O)cc1)NC(=O)[C@H](CC(=O)O)NC(=O)[C@H](CO)NC(=O)[C@@H](NC(=O)[C@H](Cc1ccccc1)NC(=O)[C@@H](NC(=O)CNC(=O)[C@H](CCC(=O)O)NC(=O)[C@@H](C)NC(=O)[C@@H](N)Cc1ccc(O)cc1)[C@@H](C)O)[C@@H](C)CC)[C@@H](C)CC)C(=O)N[C@@H](CCC(=O)O)C(=O)N[C@@H](Cc1c[nH]c2ccccc12)C(=O)N[C@@H](CC(C)C)C(=O)N[C@@H](CC(C)C)C(=O)N[C@@H](C)C(=O)N[C@@H](CCC(N)=O)C(=O)NCC(=O)N1CCC[C@H]1C(=O)N[C@@H](CO)C(=O)N[C@@H](CO)C(=O)NCC(=O)N[C@@H](C)C(=O)N1CCC[C@H]1C(=O)N1CCC[C@H]1C(=O)N1CCC[C@H]1C(=O)N[C@@H](CO)C(N)=O [Compound 36] (H-Y[dA]EGTFISDYSIELDKK([AEEA-AEEA-γGlu-C20 diacid])AQRAFIEWLLAQGPSSGAPPPS-NH2) | 6 pM | > 10000 pM | 6 pM
CC[C@H](C)[C@H](NC(=O)[C@H](CCCCN)NC(=O)[C@H](CC(=O)O)NC(=O)[C@H](CC(C)C)NC(=O)[C@H](CCC(=O)O)NC(=O)[C@@H](NC(=O)[C@H](CO)NC(=O)[C@H](Cc1ccc(O)cc1)NC(=O)[C@H](CC(=O)O)NC(=O)[C@H](CO)NC(=O)[C@@H](NC(=O)[C@H](Cc1ccccc1)NC(=O)[C@@H](NC(=O)CNC(=O)[C@H](CCC(=O)O)NC(=O)[C@@H](C)NC(=O)[C@@H](N)Cc1ccc(O)cc1)[C@@H](C)O)[C@@H](C)CC)[C@@H](C)CC)C(=O)N[C@@H](C)C(=O)N[C@@H](C)C(=O)N[C@@H](CCC(N)=O)C(=O)N[C@@H](CC(=O)O)C(=O)N[C@@H](Cc1ccccc1)C(=O)N[C@H](C(=O)N[C@@H](CCC(=O)O)C(=O)N[C@@H](Cc1c[nH]c2ccccc12)C(=O)N[C@@H](CC(C)C)C(=O)N[C@@H](CC(C)C)C(=O)N[C@@H](C)C(=O)NCC(=O)N1CCC[C@H]1C(=O)N[C@@H](CO)C(=O)N[C@@H](CO)C(=O)NCC(=O)N[C@@H](C)C(=O)N1CCC[C@H]1C(=O)N1CCC[C@H]1C(=O)N1CCC[C@H]1C(=O)N[C@@H](CO)C(=O)N[C@@H](CCCCNC(=O)COCCOCCNC(=O)COCCOCCNC(=O)CN1CCN(C(=O)CCCCCCCCCCCCCCCCCCC(=O)O)CC1)C(N)=O)[C@@H](C)CC [Compound 37] (H-Y[dA]EGTFISDYSIELDKIAAQDFIEWLLAGPSSGAPPPSK([AEEA-AEEA-X1])-NH2) | 6 pM | > 10000 pM | 16 pM
CC[C@H](C)[C@H](NC(=O)[C@H](Cc1ccccc1)NC(=O)[C@H](CC(=O)O)NC(=O)[C@H](CCC(N)=O)NC(=O)[C@H](C)NC(=O)[C@H](C)NC(=O)[C@H](CCCCNC(=O)COCCOCCNC(=O)COCCOCCNC(=O)CC[C@H](NC(=O)CCCCCCCCCCCCCCCCCCC(=O)O)C(=O)O)NC(=O)[C@H](CCCCN)NC(=O)[C@H](CC(=O)O)NC(=O)[C@H](CC(C)C)NC(=O)[C@H](CCC(=O)O)NC(=O)[C@@H](NC(=O)[C@H](CO)NC(=O)[C@H](Cc1ccc(O)cc1)NC(=O)[C@H](CC(=O)O)NC(=O)[C@H](CO)NC(=O)[C@@H](NC(=O)[C@H](Cc1ccccc1)NC(=O)[C@@H](NC(=O)CNC(=O)[C@H](CCC(=O)O)NC(=O)C(C)(C)NC(=O)[C@@H](N)Cc1ccc(O)cc1)[C@@H](C)O)[C@@H](C)CC)[C@@H](C)CC)C(=O)N[C@@H](CCC(=O)O)C(=O)N[C@@H](Cc1c[nH]c2ccccc12)C(=O)N[C@@H](CC(C)C)C(=O)N[C@@H](CC(C)C)C(=O)N[C@@H](C)C(=O)N[C@@H](CCC(N)=O)C(=O)NCC(=O)N1CCC[C@H]1C(=O)N[C@@H](CO)C(=O)N[C@@H](CO)C(=O)NCC(=O)N[C@@H](C)C(=O)N1CCC[C@H]1C(=O)N1CCC[C@H]1C(=O)N1CCC[C@H]1C(=O)N[C@@H](CO)C(N)=O [Compound 38] (H-Y[Aib]EGTFISDYSIELDKK([AEEA-AEEA-γGlu-C20 diacid])AAQDFIEWLLAQGPSSGAPPPS-NH2) | 17 pM | > 100000 pM | 1 pM
